This is an account of results in patent publication US20260070945A1, “MACROCYCLIC IMMUNOMODULATORS” (Bristol-Myers Squibb Company, priority 2022, published 2026).

Broadly, the IC50 is the concentration that gives 50% inhibition.

Where a SMILES comes first, the peptide text is derived from it. Bridges are numbered along the chain shown (N, C = ends). [ ]: non-standard residue; d: D form. The star is where a group is joined. ξ: configuration not given here. Phe(4-CONH2) = NC(=O)c1ccc(C[C@H](N)C(=O)O)cc1; Phe(4-COOH) = N[C@@H](Cc1ccc(C(=O)O)cc1)C(=O)O; Bip = N[C@@H](Cc1ccc(-c2ccccc2)cc1)C(=O)O; Phe(3-Me) = Cc1cccc(C[C@H](N)C(=O)O)c1; Val(3-OH) = CC(C)(O)[C@H](N)C(=O)O; 4Pal = N[C@@H](Cc1ccncc1)C(=O)O; Aad = N[C@@H](CCCC(=O)O)C(=O)O; Cha = N[C@@H](CC1CCCCC1)C(=O)O; Ile(3ξ) = CCC(C)[C@H](N)C(=O)O; Thr(3ξ) = CC(O)[C@H](N)C(=O)O; Carboxymethyl = O=C(O)C*; NMeA = CN[C@@H](C)C(=O)O; Aun = NCCCCCCCCCCC(=O)O; Dab = NCC[C@H](N)C(=O)O; AEEA = NCCOCCOCC(=O)O

For the first assay, the target named is T1, PD-1/PD-L1 interaction (PE-labeled human PD-L1-Ig binding to Jurkat cell line over-expressing human PD-1) (Homo sapiens, UniProt Q15116).
T1 construct: expressed in transfected cells; host or cells: Jurkat
T1 sequence (Q15116 25-288): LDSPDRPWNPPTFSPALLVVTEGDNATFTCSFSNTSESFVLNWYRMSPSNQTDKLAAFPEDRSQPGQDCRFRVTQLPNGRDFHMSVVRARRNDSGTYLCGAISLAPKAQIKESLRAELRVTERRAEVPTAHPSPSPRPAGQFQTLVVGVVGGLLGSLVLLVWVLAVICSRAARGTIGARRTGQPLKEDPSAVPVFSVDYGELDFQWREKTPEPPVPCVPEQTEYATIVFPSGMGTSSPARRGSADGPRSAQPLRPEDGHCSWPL
Nature of the assay: Jurkat-PD-1 Cell Binding High-Content Screening Assay (CBA). To be noted: Jurkat-hPD-1 cells, PE-labeled PD-L1-Ig 20 nM final; read-out: Jurkat HPD1 PDL1 IC50. The procedure, abridged: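 High-content imaging read-out of PE-PD-L1-Ig binding (20 nM final, 1 h) to Jurkat-hPD-1 cells, after 2 h compound exposure at 37 °C in DMEM with 10% FCS. Nuclei counterstained with Hoechst 33342 after paraformaldehyde fixation.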
For the compound `Cc1cccc(C[C@@H]2NC(=O)[C@H](CC(=O)O)NC(=O)[C@H](Cc3ccc(OCC(=O)O)cc3)NC(=O)[C@H](C(C)O)NC(=O)CSC[C@@H](C(=O)N[C@@H](CCN)C(=O)NCCOCCOCC(=O)NCCCCCCCCCCC(=O)O)NC(=O)[C@H](CCC(=O)O)NC(=O)[C@H](C(C)(C)O)NC(=O)[C@H](CC3CCCCC3)NC(=O)[C@H](CCN)NC(=O)[C@@H](CC(C)C)NC(=O)[C@H](C)N(C)C(=O)[C@H](Cc3ccc(OCC(=O)O)cc3)NC(=O)[C@H](Cc3ccc(-c4ccccc4)cc3)NC(=O)[C@H](Cc3ccc(C(=O)O)cc3)NC2=O)c1` (stereo partly drawn) [Example 2473] ({CH2CO}-[Thr(3ξ)]Y(Carboxymethyl)D[Phe(3-Me)][Phe(4-COOH)][Bip]Y(Carboxymethyl)[NMeA][dL][Dab][Cha][Val(3-OH)]EC[Dab][AEEA][Aun]-OH; thioether N-14), the IC50 was found to be 32.1 nM.

Consider `Cc1cccc(C[C@@H]2NC(=O)[C@H](CC(=O)O)NC(=O)[C@H](Cc3ccc(OCC(=O)O)cc3)NC(=O)[C@H](C(C)O)NC(=O)CSC[C@@H](C(=O)N[C@@H](CCN)C(=O)NCCOCCOCC(=O)NCCCCCCCCCCC(=O)O)NC(=O)[C@H](CC(N)=O)NC(=O)[C@H](C(C)(C)O)NC(=O)[C@H](CC3CCCCC3)NC(=O)[C@H](CCN)NC(=O)[C@@H](CC(C)C)NC(=O)[C@H](C)N(C)C(=O)[C@H](Cc3ccc(OCC(=O)O)cc3)NC(=O)[C@H](Cc3ccc(-c4ccccc4)cc3)NC(=O)[C@H](Cc3ccc(C(=O)O)cc3)NC2=O)c1` (stereo partly drawn) [Example 2474] ({CH2CO}-[Thr(3ξ)]Y(Carboxymethyl)D[Phe(3-Me)][Phe(4-COOH)][Bip]Y(Carboxymethyl)[NMeA][dL][Dab][Cha][Val(3-OH)]NC[Dab][AEEA][Aun]-OH; thioether N-14), for which the IC50 was 24.9 nM.

Turning to `Cc1cccc(C[C@@H]2NC(=O)[C@H](CC(=O)O)NC(=O)[C@H](Cc3ccc(OCC(=O)O)cc3)NC(=O)[C@H](C(C)O)NC(=O)CSC[C@@H](C(=O)N[C@@H](CCN)C(=O)NCCOCCOCC(=O)NCCCCCCCCCCC(=O)O)NC(=O)[C@H](CCC(N)=O)NC(=O)[C@H](C(C)C)NC(=O)[C@H](CC3CCCCC3)NC(=O)[C@H](CCN)NC(=O)[C@@H](CC(C)C)NC(=O)[C@H](C)N(C)C(=O)[C@H](Cc3ccc(OCC(=O)O)cc3)NC(=O)[C@H](Cc3ccc(-c4ccccc4)cc3)NC(=O)[C@H](Cc3ccc(C(=O)O)cc3)NC2=O)c1` (stereo partly drawn) [Example 2475] ({CH2CO}-[Thr(3ξ)]Y(Carboxymethyl)D[Phe(3-Me)][Phe(4-COOH)][Bip]Y(Carboxymethyl)[NMeA][dL][Dab][Cha]VQC[Dab][AEEA][Aun]-OH; thioether N-14), the IC50 is 18.9 nM.

With `Cc1cccc(C[C@@H]2NC(=O)[C@H](CC(=O)O)NC(=O)[C@H](Cc3ccc(OCC(=O)O)cc3)NC(=O)[C@H](C(C)O)NC(=O)CSC[C@@H](C(=O)N[C@@H](CCN)C(=O)NCCOCCOCC(=O)NCCCCCCCCCCC(=O)O)NC(=O)[C@H](CCCC(=O)O)NC(=O)[C@H](C(C)C)NC(=O)[C@H](CC3CCCCC3)NC(=O)[C@H](CCN)NC(=O)[C@@H](CC(C)C)NC(=O)[C@H](C)N(C)C(=O)[C@H](Cc3ccc(OCC(=O)O)cc3)NC(=O)[C@H](Cc3ccc(-c4ccccc4)cc3)NC(=O)[C@H](Cc3ccc(C(=O)O)cc3)NC2=O)c1` (stereo partly drawn) [Example 2476] ({CH2CO}-[Thr(3ξ)]Y(Carboxymethyl)D[Phe(3-Me)][Phe(4-COOH)][Bip]Y(Carboxymethyl)[NMeA][dL][Dab][Cha]V[Aad]C[Dab][AEEA][Aun]-OH; thioether N-14), the IC50 stood at 14.4 nM.

Turning to `Cc1cccc(C[C@@H]2NC(=O)[C@H](CC(=O)O)NC(=O)[C@H](Cc3ccc(C(=O)O)cc3)NC(=O)[C@H](C(C)O)NC(=O)CSC[C@@H](C(=O)N[C@@H](CCN)C(=O)NCCOCCOCC(=O)NCCCCCCCCCCC(=O)O)NC(=O)[C@H](Cc3ccc(C(=O)O)cc3)NC(=O)[C@H](C(C)C)NC(=O)[C@H](CC3CCCCC3)NC(=O)[C@H](CCN)NC(=O)[C@@H](CC(C)C)NC(=O)[C@H](C)N(C)C(=O)[C@H](Cc3ccc(OCC(=O)O)cc3)NC(=O)[C@H](Cc3ccc(-c4ccccc4)cc3)NC(=O)[C@H](Cc3ccc(C(=O)O)cc3)NC2=O)c1` (stereo partly drawn) [Example 2477] ({CH2CO}-[Thr(3ξ)][Phe(4-COOH)]D[Phe(3-Me)][Phe(4-COOH)][Bip]Y(Carboxymethyl)[NMeA][dL][Dab][Cha]V[Phe(4-COOH)]C[Dab][AEEA][Aun]-OH; thioether N-14), the IC50 is 24.5 nM.

Turning to `Cc1cccc(C[C@@H]2NC(=O)[C@H](CC(=O)O)NC(=O)[C@H](Cc3ccc(OCC(=O)O)cc3)NC(=O)[C@H](C(C)O)NC(=O)CSC[C@@H](C(=O)N[C@@H](CCN)C(=O)NCCOCCOCC(=O)NCCCCCCCCCCC(=O)O)NC(=O)[C@H](Cc3ccc(OCC(=O)O)cc3)NC(=O)[C@H](C(C)C)NC(=O)[C@H](CC3CCCCC3)NC(=O)[C@H](CCN)NC(=O)[C@@H](CC(C)C)NC(=O)[C@H](C)N(C)C(=O)[C@H](Cc3ccc(OCC(=O)O)cc3)NC(=O)[C@H](Cc3ccc(-c4ccccc4)cc3)NC(=O)[C@H](Cc3ccc(C(=O)O)cc3)NC2=O)c1` (stereo partly drawn) [Example 2478] ({CH2CO}-[Thr(3ξ)]Y(Carboxymethyl)D[Phe(3-Me)][Phe(4-COOH)][Bip]Y(Carboxymethyl)[NMeA][dL][Dab][Cha]VY(Carboxymethyl)C[Dab][AEEA][Aun]-OH; thioether N-14), the half-maximal inhibitory concentration (IC50) was 25.2 nM.

Staying with this assay, now noted: PE-labeled PD-L1-Ig 20 nM final, Jurkat-hPD-1 cells; read-out: Jurkat HPD1 PDL1 IC50.
`Cc1cccc(C[C@@H]2NC(=O)[C@H](CC(=O)O)NC(=O)[C@H](Cc3ccc(OCC(=O)O)cc3)NC(=O)[C@H](Cc3ccncc3)NC(=O)CSC[C@@H](C(=O)N[C@@H](CCN)C(=O)NCCCCCCCCCCC(=O)O)NC(=O)[C@H](Cc3cnc[nH]3)NC(=O)[C@H](C(C)(C)O)NC(=O)[C@H](CC3CCCCC3)NC(=O)[C@H](CCN)NC(=O)[C@@H](CC(C)C)NC(=O)[C@H](C)N(C)C(=O)[C@H](Cc3ccc(OCC(=O)O)cc3)NC(=O)[C@H](Cc3ccc(-c4ccccc4)cc3)NC(=O)[C@H](Cc3ccc(OCC(=O)O)cc3)NC2=O)c1` [Example 2467] ({CH2CO}-[4Pal]Y(Carboxymethyl)D[Phe(3-Me)]Y(Carboxymethyl)[Bip]Y(Carboxymethyl)[NMeA][dL][Dab][Cha][Val(3-OH)]HC[Dab][Aun]-OH; thioether N-14): the concentration for half-maximal inhibition (IC50) worked out at 161 nM.

Regarding `Cc1cccc(C[C@@H]2NC(=O)[C@H](CC(=O)O)NC(=O)[C@H](Cc3ccc(OCC(=O)O)cc3)NC(=O)[C@H](C(C)O)NC(=O)CSC[C@@H](C(=O)N[C@@H](CCN)C(=O)NCCOCCOCC(=O)NCCCCCCCCCCC(=O)O)NC(=O)[C@H](C(C)O)NC(=O)[C@H](C(C)(C)O)NC(=O)[C@H](CC3CCCCC3)NC(=O)[C@H](CCN)NC(=O)[C@@H](CC(C)C)NC(=O)[C@H](C)N(C)C(=O)[C@H](Cc3ccc(OCC(=O)O)cc3)NC(=O)[C@H](Cc3ccc(-c4ccccc4)cc3)NC(=O)[C@H](Cc3ccc(OCC(=O)O)cc3)NC2=O)c1` (stereo partly drawn) [Example 2468] ({CH2CO}-[Thr(3ξ)]Y(Carboxymethyl)D[Phe(3-Me)]Y(Carboxymethyl)[Bip]Y(Carboxymethyl)[NMeA][dL][Dab][Cha][Val(3-OH)][Thr(3ξ)]C[Dab][AEEA][Aun]-OH; thioether N-14), the half-inhibitory concentration (IC50) came out at 22.3 nM.

As to `Cc1cccc(C[C@@H]2NC(=O)[C@H](CC(=O)O)NC(=O)[C@H](Cc3ccc(OCC(=O)O)cc3)NC(=O)[C@H](C(C)O)NC(=O)CSC[C@@H](C(=O)N[C@@H](CCN)C(=O)NCCOCCOCC(=O)NCCCCCCCCCCC(=O)O)NC(=O)[C@H](CO)NC(=O)[C@H](C(C)(C)O)NC(=O)[C@H](CC3CCCCC3)NC(=O)[C@H](CCN)NC(=O)[C@@H](CC(C)C)NC(=O)[C@H](C)N(C)C(=O)[C@H](Cc3ccc(OCC(=O)O)cc3)NC(=O)[C@H](Cc3ccc(-c4ccccc4)cc3)NC(=O)[C@H](Cc3ccc(OCC(=O)O)cc3)NC2=O)c1` (stereo partly drawn) [Example 2469] ({CH2CO}-[Thr(3ξ)]Y(Carboxymethyl)D[Phe(3-Me)]Y(Carboxymethyl)[Bip]Y(Carboxymethyl)[NMeA][dL][Dab][Cha][Val(3-OH)]SC[Dab][AEEA][Aun]-OH; thioether N-14), the IC50 came out at 25.3 nM.

With `Cc1cccc(C[C@@H]2NC(=O)[C@H](CC(=O)O)NC(=O)[C@H](Cc3ccc(OCC(=O)O)cc3)NC(=O)[C@H](C(C)O)NC(=O)CSC[C@@H](C(=O)N[C@@H](CCN)C(=O)NCCOCCOCC(=O)NCCCCCCCCCCC(=O)O)NC(=O)[C@H](Cc3cnc[nH]3)NC(=O)[C@H](C(C)(C)O)NC(=O)[C@H](CC3CCCCC3)NC(=O)[C@H](CCN)NC(=O)[C@@H](CC(C)C)NC(=O)[C@H](C)N(C)C(=O)[C@H](Cc3ccc(OCC(=O)O)cc3)NC(=O)[C@H](Cc3ccc(-c4ccccc4)cc3)NC(=O)[C@H](Cc3ccc(OCC(=O)O)cc3)NC2=O)c1` (stereo partly drawn) [Example 2470] ({CH2CO}-[Thr(3ξ)]Y(Carboxymethyl)D[Phe(3-Me)]Y(Carboxymethyl)[Bip]Y(Carboxymethyl)[NMeA][dL][Dab][Cha][Val(3-OH)]HC[Dab][AEEA][Aun]-OH; thioether N-14), the IC50 was determined as 8.7 nM.

On to `CCC(C)[C@@H]1NC(=O)[C@H](Cc2ccc(-c3ccccc3)cc2)NC(=O)[C@H](Cc2ccc(C(N)=O)cc2)NC(=O)[C@H](Cc2cccc(C)c2)NC(=O)[C@H](CC(=O)O)NC(=O)[C@H](Cc2ccc(OCC(=O)O)cc2)NC(=O)[C@H](C(C)O)NC(=O)CSC[C@@H](C(=O)N[C@@H](CCN)C(=O)NCCOCCOCC(=O)NCCCCCCCCCCC(=O)O)NC(=O)[C@H](C(C)O)NC(=O)[C@H](C(C)(C)O)NC(=O)[C@H](CC2CCCCC2)NC(=O)[C@H](CCN)NC(=O)[C@@H](CC(C)C)NC(=O)[C@H](C)N(C)C1=O` (stereo partly drawn) [Example 2471] ({CH2CO}-[Thr(3ξ)]Y(Carboxymethyl)D[Phe(3-Me)][Phe(4-CONH2)][Bip][Ile(3ξ)][NMeA][dL][Dab][Cha][Val(3-OH)][Thr(3ξ)]C[Dab][AEEA][Aun]-OH; thioether N-14), for which the half-maximal inhibitory concentration (IC50) was determined as 9.3 nM.
